Where only a bound is given, the exact number is not on record here.

The first assay has as its system PDE4. In words: Evaluation of PDE4 inhibitory activity, scintillation proximity assay. It counts as biochemical. To be noted: scintillation proximity assay; class symbols of Evaluation 1; read-out: PDE4 Inhibitory Activity (concentration for the inhibition rate of 50%, IC50), Evaluation 1. The gist of the method: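 SPA with [2,8-3H]-cAMP and diluted PDE4 enzyme preparation in 50 mM Tris-HCl pH 7.4, 8.3 mM MgCl2, 1.7 mM EGTA, 3 mg/mL BSA, 120 min at room temperature. Product captured on ZnSO4-containing YSi-SPA beads, scintillation counted; IC50 from inhibition curves vs DMSO control and no-enzyme blank.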
In the case of `OC(c1cc(-c2nccs2)c2oc(N3CC4CCC(C3)N4)nc2c1)C(F)(F)F` (stereo not drawn) [Example 138, 1-(2-(3,8-Diazabicyclo[3.2.1]octan-3-yl)-7-(thiazol-2-yl)benzo[d]oxazol-5-yl)-2,2,2-trifluoroethan-1-ol], the IC50 was < 100 nM.
Still for that read-out and setting: the result for `FC(F)(F)Oc1cc(-c2nccs2)c2oc(N3CC4CCC(C3)N4)nc2c1` [Example 54, 2-(3,8-Diazabicyclo[3.2.1]octan-3-yl)-7-(thiazol-2-yl)-5-(trifluoromethoxy)benzo[d]oxazole] reads < 100 nM.
On to `CC(C)Oc1cc(-c2nccs2)c2oc(N3CC4CCC(C3)N4)nc2c1` [Example 68, 2-(3,8-Diazabicyclo[3.2.1]octan-3-yl)-5-isopropoxy-7-(thiazol-2-yl)benzo[d]oxazole], for which the IC50 is < 100 nM.
In the case of `Oc1cc(-c2nccs2)c2oc(N3CC4CCC(C3)N4)nc2c1` [Example 63, 2-(3,8-Diazabicyclo[3.2.1]octan-3-yl)-7-(thiazol-2-yl)benzo[d]oxazol-5-ol], the IC50 is < 100 nM.
Still for that read-out and setting: next, `CC(=O)Nc1ccc(-c2nccs2)c2oc(N3CC4CC(C3)N4)nc12` [Example 35, N-(2-(3,6-diazabicyclo[3.1.1]heptan-3-yl)-7-(thiazol-2-yl)benzo[d]oxazol-4-yl)acetamide]: 100 to 1000 nM; `CC(C)c1cc(-c2nccs2)c2oc(N3CC4CCC(C3)N4)nc2c1` [Example 21, 2-(3,8-Diazabicyclo[3.2.1]octan-3-yl)-5-isopropyl-7-(thiazol-2-yl)benzo[d]oxazole]: < 100 nM.
On the same count and under the same terms, next, `FC(F)(F)c1c(Cl)cc(-n2cccn2)c2oc(N3CC4CCCC(C3)N4)nc12` [Example 16, 2-(3,9-Diazabicyclo[3.3.1]nonan-3-yl)-5-chloro-7-(1H-pyrazol-1-yl)-4-(trifluoromethyl)benzo[d]oxazole]: < 100 nM; `CC(=O)c1cc(-c2nccs2)c2oc(N3CC4CCC(C3)N4)nc2c1` [Example 108, 1-(2-(3,8-Diazabicyclo[3.2.1]octan-3-yl)-7-(thiazol-2-yl)benzo[d]oxazol-5-yl)ethan-1-one]: < 100 nM; `CC(O)c1ccc(-c2nccs2)c2oc(N3CC4CCC(C3)N4)nc12` (stereo not drawn) [Example 124, 1-(2-(3,8-Diazabicyclo[3.2.1]octan-3-yl)-7-(thiazol-2-yl)benzo[d]oxazol-4-yl)ethan-1-ol]: < 100 nM.
On to `CC(O)COC(c1cc(-c2nccs2)c2oc(N3CC4CCC(C3)N4)nc2c1)C(F)(F)F` (stereo not drawn) [Example 155, 1-(1-(2-(3,8-Diazabicyclo[3.2.1]octan-3-yl)-7-(thiazol-2-yl)benzo[d]oxazol-5-yl)-2,2,2-trifluoroethoxy)propan-2-ol], for which the IC50 is < 100 nM.
Same read-out and setting: the result for `OC(c1cc(-c2nccs2)c2oc(N3CC4CCC(C3)N4)nc2c1)C(F)(F)F` (racemic) [Example 137, 1-(2-(3,8-Diazabicyclo[3.2.1]octan-3-yl)-7-(thiazol-2-yl)benzo[d]oxazol-5-yl)-2,2,2-trifluoroethan-1-ol] reads < 100 nM.
The same measure, in the same setting: the result for `N#CCOC(c1cc(-c2nccs2)c2oc(N3CC4CCC(C3)N4)nc2c1)C(F)(F)F` (stereo not drawn) [Example 153, 2-(1-(2-(3,8-Diazabicyclo[3.2.1]octan-3-yl)-7-(thiazol-2-yl)benzo[d]oxazol-5-yl)-2,2,2-trifluoroethoxy)acetonitrile] reads < 100 nM; that for `FC(F)(F)c1ccc(-c2nccs2)c2oc(N3CC4CCCC(C3)N4)nc12` [Example 33, 2-(3,9-Diazabicyclo[3.3.1]nonan-3-yl)-7-(thiazol-2-yl)-4-(trifluoromethyl)benzo[d]oxazole], < 100 nM.
For `CC(O)c1cc(-c2nccs2)c2oc(N3CC4CC(C3)N4)nc2c1` (stereo not drawn) [Example 107, 1-(2-(3,6-Diazabicyclo[3.1.1]heptan-3-yl)-7-(thiazol-2-yl)benzo[d]oxazol-5-yl)ethan-1-ol], the IC50 lay in the range of 100 to 1000 nM.
Still for that read-out and setting: the result for `CNC(=O)c1cc(-c2nccs2)c2oc(N3CC4CCC(C3)N4)nc2c1` [Example 100, 2-(3,8-Diazabicyclo[3.2.1]octan-3-yl)-N-methyl-7-(thiazol-2-yl)benzo[d]oxazole-5-carboxamide] reads < 100 nM.

Still in this assay, the particulars now being: scintillation proximity assay; read-out: PDE4 Inhibitory Activity (Evaluation 1; concentration for the inhibition rate of 50%).
For the compound `CON=C(C)c1cc(-c2nccs2)c2oc(N3CC4CCC(C3)N4)nc2c1OC(F)(F)F` (mixture of isomers) [Example 218, (E)-1-(2-(3,8-diazabicyclo[3.2.1]octan-3-yl)-7-(thiazol-2-yl)-4-(trifluoromethoxy)benzo[d]oxazol-5-yl)ethan-1-one O-methyloxime and (Z)-1-(2-(3,8-diazabicyclo[3.2.1]octan-3-yl)-7-(thiazol-2-yl)-4-(trifluoromethoxy)benzo[d]oxazol-5-yl)ethan-1-one O-methyloxime], the IC50 is < 100 nM.
For `OC(c1cc(-c2cscn2)c2oc(N3CC4CCC(C3)N4)nc2c1OC(F)(F)F)C(F)F` (stereo not drawn) [Example 303, 1-(2-(3,8-Diazabicyclo[3.2.1]octan-3-yl)-7-(thiazol-4-yl)-4-(trifluoromethoxy)benzo[d]oxazol-5-yl)-2,2-difluoroethan-1-ol], the IC50 was < 100 nM.
As for `CC(O)c1cc(-c2nccs2)c2oc(N3CC4CCC(C3)N4O)nc2c1C(F)(F)F` (stereo not drawn) [Example 384, 3-(5-(1-Hydroxyethyl)-7-(thiazol-2-yl)-4-(trifluoromethyl)benzo[d]oxazol-2-yl)-3,8-diazabicyclo[3.2.1]octan-8-ol], the IC50 was > 1000 nM.
For the compound `CC(C)(O)c1cc(-c2nccs2)c2oc(N3CC4CCC(C3)N4O)nc2c1OC(F)(F)F` [Example 368, 3-(5-(2-Hydroxypropan-2-yl)-7-(thiazol-2-yl)-4-(trifluoromethoxy)benzo[d]oxazol-2-yl)-3,8-diazabicyclo[3.2.1]octan-8-ol], the IC50 was in the range of 100 to 1000 nM.
Take `COCCOC(c1ccc(-c2nccs2)c2oc(N3CC4CC(C3)N4)nc12)C(F)(F)F` (stereo not drawn) [Example 229, 2-(3,6-Diazabicyclo[3.1.1]heptan-3-yl)-7-(thiazol-2-yl)-4-(2,2,2-trifluoro-1-(2-methoxyethoxy)ethyl)benzo[d]oxazole]: the IC50 was < 100 nM.
`COC(C)c1ccc(-c2nccs2)c2oc(N3CC4CCCC(C3)N4)nc12` (stereo not drawn) [Example 243, 2-(3,9-Diazabicyclo[3.3.1]nonan-3-yl)-4-(1-methoxyethyl)-7-(thiazol-2-yl)benzo[d]oxazole]: the IC50 was < 100 nM.
Regarding `CC(C)(O)C(F)(F)Oc1ccc(-c2ccccn2)c2oc(N3CC4CC(C3)N4)nc12` [Example 289, 1-((2-(3,6-Diazabicyclo[3.1.1]heptan-3-yl)-7-(pyridin-2-yl)benzo[d]oxazol-4-yl)oxy)-1,1-difluoro-2-methylpropan-2-ol], the IC50 is < 100 nM.
Same read-out and setting: next, `CN(C)S(=O)(=O)c1ccc(-c2nccs2)c2oc(N3CC4CC(C3)N4)nc12` [Example 388, 2-(3,6-Diazabicyclo[3.1.1]heptan-3-yl)-N,N-dimethyl-7-(thiazol-2-yl)benzo[d]oxazole-4-sulfonamide]: < 100 nM; `CC(C)(O)c1cc(-c2nccs2)c2oc(N3CC4CCC(C3)N4O)nc2c1C(F)(F)F` [Example 381, 3-(5-(2-Hydroxypropan-2-yl)-7-(thiazol-2-yl)-4-(trifluoromethyl)benzo[d]oxazol-2-yl)-3,8-diazabicyclo[3.2.1]octan-8-ol]: > 1000 nM.
Consider `CC(C)(O)C(F)(F)Oc1ccc(-c2cscn2)c2oc(N3CC4CC(C3)N4)nc12` [Example 307, 1-((2-(3,6-Diazabicyclo[3.1.1]heptan-3-yl)-7-(thiazol-4-yl)benzo[d]oxazol-4-yl)oxy)-1,1-difluoro-2-methylpropan-2-ol], for which the IC50 was < 100 nM.
For `CCC(F)(F)Oc1ccc(-c2nccs2)c2oc(N3CC4CC(C3)N4)nc12` [Example 402, 2-(3,6-Diazabicyclo[3.1.1]heptan-3-yl)-4-(1,1-difluoropropoxy)-7-(thiazol-2-yl)benzo[d]oxazole], the IC50 is < 100 nM.
In the case of `OCC(F)(F)Oc1ccc(-c2cscn2)c2oc(N3CC4CC(C3)N4)nc12` [Example 311, 2-((2-(3,6-Diazabicyclo[3.1.1]heptan-3-yl)-7-(thiazol-4-yl)benzo[d]oxazol-4-yl)oxy)-2,2-difluoroethan-1-ol], the IC50 was < 100 nM.
On the same count and under the same terms, next, `CSc1ccc(-c2nccs2)c2oc(N3CC4CC(C3)N4)nc12` [Example 345, 2-(3,6-Diazabicyclo[3.1.1]heptan-3-yl)-4-(methylthio)-7-(thiazol-2-yl)benzo[d]oxazole]: < 100 nM; `CC(O)c1ccc(-c2nccs2)c2oc(N3CC4CCCC(C3)N4)nc12` (stereo not drawn) [Example 239, 1-(2-(3,9-Diazabicyclo[3.3.1]nonan-3-yl)-7-(thiazol-2-yl)benzo[d]oxazol-4-yl)ethan-1-ol]: < 100 nM; `OCC(F)(F)OC(c1ccc(-c2nccs2)c2oc(N3CC4CC(C3)N4)nc12)C(F)(F)F` (stereo not drawn) [Example 258, 2-(1-(2-(3,6-Diazabicyclo[3.1.1]heptan-3-yl)-7-(thiazol-2-yl)benzo[d]oxazol-4-yl)-2,2,2-trifluoroethoxy)-2,2-difluoroethan-1-ol]: < 100 nM.
Regarding `CC(C)(O)C(F)(F)Oc1ccc(-c2cscn2)c2oc(N3CC4CCC(C3)N4)nc12` [Example 308, 1-((2-(3,8-Diazabicyclo[3.2.1]octan-3-yl)-7-(thiazol-4-yl)benzo[d]oxazol-4-yl)oxy)-1,1-difluoro-2-methylpropan-2-ol], the IC50 is < 100 nM.
Still for that read-out and setting: the result for `OC(c1cc(-c2nccs2)c2oc(N3CC4CCC(C3)N4)nc2c1OC(F)(F)F)C(F)F` (stereo not drawn) [Example 275, 1-(2-(3,8-Diazabicyclo[3.2.1]octan-3-yl)-7-(thiazol-2-yl)-4-(trifluoromethoxy)benzo[d]oxazol-5-yl)-2,2-difluoroethan-1-ol] reads < 100 nM.
The same measure, in the same setting: the result for `ON1C2CCC1CN(c1nc3c(OC(F)(F)F)c(Cl)cc(-c4nccs4)c3o1)C2` [Example 375, 3-(5-Chloro-7-(thiazol-2-yl)-4-(trifluoromethoxy)benzo[d]oxazol-2-yl)-3,8-diazabicyclo[3.2.1]octan-8-ol] reads < 100 nM.

For the origin of these results see patent US12239643B2, “Therapeutic agent for inflammatory diseases, autoimmune diseases, fibrotic diseases, and cancer diseases” (MEIJI SEIKA PHARMA CO., LTD., priority 2018, dated 2025).
